Entries after “also recorded” stand apart in the source; their conditions may differ. Like-named read-outs stand apart in the source and are kept apart here. Values belong to the compound of their own block, whether it stands above or below them.
Columns and labels:
CYP3A4 [1] = biological target: T1, CYP3A4 (Homo sapiens, UniProt P08684); test: Inactivation kinetics of CYP3A4 (literature data and reanalysis)
Procedure: (§1) Firstly, the remaining enzyme activities were extracted from the data sets for all inactivator concentrations and plotted against the respective preincubation times used. Secondly, the resulting decay curves for different inactivator concentrations were fitted to mono-exponential functions, thus yielding observed inactivation rates kobs for all inactivator concentrations.

human HDAC8 = biological target: T2, human HDAC8 (Homo sapiens, UniProt Q9BY41); test: Time-dependent fluorometric HDAC8 enzyme activity assay (dose-response curves after different pre-incubation times); details: for Binding / inhibition mechanism classification: from time-dependent dose-response curves and kobs vs [I] plot; for kinact: read-out: kinact (min^−1); for kinact/KI: read-out: kinact/KI (M^−1s^−1)
T2 sequence (Q9BY41 1-377): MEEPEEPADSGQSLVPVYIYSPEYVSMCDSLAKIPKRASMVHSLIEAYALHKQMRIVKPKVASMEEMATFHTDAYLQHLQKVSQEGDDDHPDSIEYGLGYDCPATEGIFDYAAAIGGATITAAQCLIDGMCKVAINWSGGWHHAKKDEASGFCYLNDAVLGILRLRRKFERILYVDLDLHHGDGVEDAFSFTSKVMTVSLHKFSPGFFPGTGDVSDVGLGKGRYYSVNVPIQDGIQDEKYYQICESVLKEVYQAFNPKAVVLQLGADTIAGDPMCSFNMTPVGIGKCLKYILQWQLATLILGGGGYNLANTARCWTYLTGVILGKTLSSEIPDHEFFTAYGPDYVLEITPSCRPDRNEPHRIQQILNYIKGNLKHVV
Procedure: HDAC8 activity was determined using a fluorometric assay, as previously described [44]. […] The enzyme reaction was initiated by adding 20 μM of the substrate Boc-Lys(TFA)-AMC (Bachem, Bubendorf, Switzerland). […] The measurements were carried out using a fluorescence microplate reader (PHERAstar FS, BMG LABTECH, Ortenberg, Germany) with fluorescence excitation at 360 nm and emission at 460 nm. IC50 values were calculated using GraphPad Prism 9 by generating dose–response curves and fitting them to a 4-parameter fit model [50]. The results represent the mean ± SD of three independent experiments.
The binding constant Ki for the 1-step binding mechanism in Equation (5) was calculated as follows:(5) Ki=koff/kon
A plot of kobs versus inhibitor or inactivator concentration ([I]) allows distinguishing between 1-step or 2-step behavior: a straight line indicates 1-step, and a saturation curve indicates a 2-step mechanism. Kinetic parameters were obtained from fitting kobs vs. [I] data to the following functions for the indicated mechanism:
Reversible 1-step binding (see Equation (1)):(8) kobs=kon[I]+koff where kon and koff are association and dissociation rate constants, respectively.
Reversible 2-step binding (see Equation (2)):(9) kobs=k−r+kr/1+IC50/[I] where kr and k−r are forward and reverse isomerization rate constants of the second step.
Irreversible 1-step inactivation (see Equation (3)):(10) kobs=kinact/KI[I] where kinact is the inactivation rate, KI is [I], and kinact is the half-maximum.
Irreversible 2-step inactivation (see Equation (4)):(11) kobs=kinact[I]/KI +[I]

CYP2C8 [2] = biological target: T3, CYP2C8 (Homo sapiens, UniProt P10632); test: Inactivation kinetics of CYP2C8 (literature data and reanalysis)
T3 sequence (P10632 1-490): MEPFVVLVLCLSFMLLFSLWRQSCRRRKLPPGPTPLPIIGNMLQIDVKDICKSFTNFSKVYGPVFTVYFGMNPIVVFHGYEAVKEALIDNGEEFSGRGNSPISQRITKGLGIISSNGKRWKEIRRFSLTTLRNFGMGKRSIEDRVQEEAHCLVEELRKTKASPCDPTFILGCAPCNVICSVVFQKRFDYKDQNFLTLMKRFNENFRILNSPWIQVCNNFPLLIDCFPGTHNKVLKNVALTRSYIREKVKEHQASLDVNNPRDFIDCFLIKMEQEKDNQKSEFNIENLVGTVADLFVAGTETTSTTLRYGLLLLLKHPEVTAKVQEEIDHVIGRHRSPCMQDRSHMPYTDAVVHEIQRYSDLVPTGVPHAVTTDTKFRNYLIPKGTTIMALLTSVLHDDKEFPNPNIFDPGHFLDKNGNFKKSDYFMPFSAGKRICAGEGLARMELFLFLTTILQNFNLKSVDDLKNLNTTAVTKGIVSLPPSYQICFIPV
Procedure: as §1

CYP3A4 [3] = biological target: T1, CYP3A4; details: CYP3A4 inactivation ref 38, cited from earlier work
[4] = design: method as in PMID 5970483; details: pH 8 ref 48; cited from earlier work
[5] = design: method as in PMID 5970483; details: pH of 7.0 ref 48; cited from earlier work
CYP2C8 [6] = biological target: T3, CYP2C8; details: CYP2C8 inactivation ref 36, cited from earlier work
HDAC8 [7] = details: read-out: IC50 (µM) (Lit.), cited from earlier work
HDAC8 [8] = biological target: HDAC8; design: method as in PMID 24882269; details: binding affinity to HDAC8 ref 41; cited from earlier work
HIV protease = system: HIV protease; design: method as in PMID 17928344; details: HIV protease ref 18; cited from earlier work

T1 sequence (P08684 2-503): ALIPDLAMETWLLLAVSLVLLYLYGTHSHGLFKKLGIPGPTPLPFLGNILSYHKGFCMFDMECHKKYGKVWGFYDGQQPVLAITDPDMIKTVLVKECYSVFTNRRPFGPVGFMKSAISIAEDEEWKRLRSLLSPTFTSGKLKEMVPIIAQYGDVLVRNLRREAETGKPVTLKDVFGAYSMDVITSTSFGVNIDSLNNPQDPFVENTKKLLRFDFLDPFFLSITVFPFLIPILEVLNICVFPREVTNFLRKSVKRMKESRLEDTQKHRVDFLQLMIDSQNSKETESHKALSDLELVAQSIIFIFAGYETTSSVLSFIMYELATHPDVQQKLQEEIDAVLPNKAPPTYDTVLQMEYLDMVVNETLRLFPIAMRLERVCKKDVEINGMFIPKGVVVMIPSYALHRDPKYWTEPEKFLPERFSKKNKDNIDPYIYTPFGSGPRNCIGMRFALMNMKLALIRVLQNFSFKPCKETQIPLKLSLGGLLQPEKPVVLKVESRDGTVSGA

Ki (CYP3A4 [1]; human): 12 ± 5 µM
kinact (CYP3A4 [1]; human): 0.0065 s⁻¹
Compound: CC(C)=CCC/C(C)=C/COc1c2ccoc2cc2oc(=O)ccc12 [Bergamottin]

IC50 (human HDAC8): 0.08 ± 0.03 µM
kinact (human HDAC8): > 2 min⁻¹
Compound: O=c1c2ccccc2[se]n1-c1ccccc1 [Ebselen, reference compound]
Binding / inhibition mechanism classification (human HDAC8): rapidly inactivated HDAC8; also recorded: fast covalent inactivators

Ki (CYP3A4 [1]; human): 5.4 ± 2.5 µM
Compound: C#C[C@]1(O)CC[C@H]2[C@@H]3CCc4cc(O)ccc4[C@H]3CC[C@@]21C [Ethynyl-estradiol, reference compound]

Compound: NNC(=O)c1ccncc1 [Isoniazid]
Ki (CYP2C8 [2]; human): 280 ± 40 µM
kinact (CYP2C8 [2]; human): 0.0006 s⁻¹

Compound: CC/C(=C(\c1ccccc1)c1ccc(OCCNC)cc1)c1ccccc1 [N-desmethy-ltamoxifen]
kinact (min^−1), Reanalysis (CYP3A4 [1]; CYP3A4, reanalysis of literature data (refs 37-39) with two-step fit of kobs vs [I]): 0.083 ± 0.007 min⁻¹
Ki (CYP3A4 [1]; read-out: KI (µM), Reanalysis, CYP3A4, reanalysis of literature data (refs 37-39) with two-step fit of kobs vs [I]): 2.5 ± 1 µM
kinact (min^−1), Literature (CYP3A4 [3]): 0.08 min⁻¹
Ki (CYP3A4 [3]; read-out: KI (µM), Literature): 2.6 µM

Compound: CCN1C(=O)C=CC1=O [NEM, N-ethylmaleimide, reference compound]
IC50 (human HDAC8): 0.7 to 42 µM
Binding / inhibition mechanism classification (human HDAC8): unspecific one-step affinity labeling; also recorded: slow inactivation behavior
kinact/KI (human HDAC8): 133 ± 3 M⁻¹ s⁻¹
second-order rate constant for N-ethylmaleimide reaction with cysteine [4]: 15,300 M^−1s^−1
rate constant, times lower than that of cysteine [5]: more than 100 times

Compound: CNCCC=C1c2ccccc2CCc2ccccc21 [Nortriptyine]
kinact (min^−1), Literature (CYP2C8 [6]): 0.036 min⁻¹
Ki (CYP2C8 [6]; read-out: KI (µM), Literature): 49.9 µM
kinact (min^−1), Reanalysis (CYP2C8 [2]; CYP2C8, reanalysis of literature data (ref 36) with two-step fit of kobs vs [I]): 0.044 ± 0.003 min⁻¹
Ki (CYP2C8 [2]; read-out: KI (µM), Reanalysis, CYP2C8, reanalysis of literature data (ref 36) with two-step fit of kobs vs [I]): 66 ± 12 µM

Compound: COc1ccc(Cn2ccc3ccc(C(=O)NO)cc32)cc1 [PCI-34051, reference compound]
Binding / inhibition mechanism classification (human HDAC8): fast-reversible inhibitors

Compound: NNCCc1ccccc1 [Phenelzine]
Ki (CYP2C8 [2]; human): 0.84 ± 0.24 µM
kinact (CYP2C8 [2]; human): 0.0035 s⁻¹

Compound: O=C(CCCCCCC(=O)Nc1ccccc1)NO [SAHA, suberoylanilide hydroxamic acid, reference compound]
Binding / inhibition mechanism classification (human HDAC8): fast-reversible inhibitors

Compound: O=C(CCCCCCC(=O)C(F)(F)F)Nc1ccccc1 [SATFMK]
IC50 (HDAC8 [7]; literature value ref 42): 0.021 µM
Kd (HDAC8 [8]): 0.0056 µM

IC50 (human HDAC8): 4.2 ± 1.1 µM
Ki (human HDAC8): 1.3 µM
Compound: COC(=O)c1ccc(/C=C(\C#N)C(=O)C(F)(F)F)cc1 [SVE04]
Binding / inhibition mechanism classification (human HDAC8): fast reversible HDAC8 inhibitors; also recorded: fast reversible binding

IC50 (human HDAC8): 2.6 ± 0.4 µM
Ki (human HDAC8): 0.8 µM
Compound: COc1ccc(CC(C#N)C(=O)O)cc1 (centres unmarked) [SVE27]
Binding / inhibition mechanism classification (human HDAC8): fast reversible HDAC8 inhibitors; also recorded: fast reversible binding

IC50 (human HDAC8): 0.4 to 4 µM
Ki (human HDAC8): 5.9 ± 0.8 µM
kinact (human HDAC8): 1 min⁻¹
kinact/KI (human HDAC8): 2820 M⁻¹ s⁻¹
Compound: Cc1cc(C)cc(CSc2nc(Cl)ns2)c1 [TJ-19-24]
Binding / inhibition mechanism classification (human HDAC8): slow two-step inactivators or reversible inhibitors, with a very low reverse isomerization rate; also recorded: slow covalent inactivator; also recorded: slow two-step inactivation

IC50 (human HDAC8): 0.3 to 3 µM
Ki (human HDAC8): 12 ± 3 µM
kinact (human HDAC8): 1.8 min⁻¹
kinact/KI (human HDAC8): 2500 M⁻¹ s⁻¹
Compound: Cc1cc(C)cc(CS(=O)(=O)c2nc(Cl)ns2)c1 [TJ-19-28]
Binding / inhibition mechanism classification (human HDAC8): two-step inactivation mechanism; also recorded: irreversible inactivation mechanism

Compound: CC(C)CN(C[C@@H](O)[C@H](Cc1ccccc1)NC(=O)O[C@H]1CO[C@H]2OCC[C@H]21)S(=O)(=O)c1ccc(N)cc1 [darunavir]
residence time (RT) (HIV protease): 247 h

Compound: CC(C)(C)NC(=O)[C@@H]1CN(Cc2cccnc2)CCN1C[C@@H](O)C[C@@H](Cc1ccccc1)C(=O)N[C@H]1c2ccccc2C[C@H]1O [indinavir]
residence time (RT) (HIV protease): 0.3 h

Source: article PMC11171933, “Rapid Determination of Kinetic Constants for Slow-Binding Inhibitors and Inactivators of Human Histone Deacetylase 8” (International Journal of Molecular Sciences, 2024)
